For two compounds, IC50 and oral bioavailability results are on record in patent EP4741383A1, “COMPOUND AND USE THEREOF AS ANTI-CANCER DRUG” (Tyligand Bioscience (Shanghai) Limited, priority 2023, dated 2025).

One data set concerns Jurket. As to the kind of experiment: CellTiter-Glo cell proliferation inhibition, Jurket. To be noted: Jurket (acute leukemia cell line), 72 hours; read-out: Example IC50 (µM) Jurket. It counts as cell-based. From the text:
(§1) This experiment used the CellTiter-Glo® Luminescent Cell Viability Assay kit from Promega to evaluate the inhibitory activity of the disclosed compounds on the proliferation of the following cell lines: 4T1 (mouse breast cancer cell line), A20 (mouse B-cell lymphoma cell line), A2780 (human ovarian cancer cell line), AsPC-1 (pancreatic cancer cell line), B16F10 (mouse melanoma cell line), BT549 (human breast cancer cell line), CT26 (mouse colon cancer cell line), EMT6 (mouse breast cancer cell line), HCT116 (colorectal cancer cell line), Jurket (acute leukemia cell line), KP-4 (pancreatic cancer cell line), LL/2 (mouse lung cancer cell line), MCF7 (breast cancer cell line), […] NCI-H358 (lung cancer cell line), NCI-H727 (gastric cancer cell line), NCI-1944 (lung cancer cell line), Pan 04.03 (pancreatic cancer cell line), SK-BR-3 (breast cancer cell line), THP-1 (leukemia cell line), TOV21G (ovarian cancer cell line), U87MG (glioblastoma cell line), and UM-UC-a (bladder cancer cell line). […]
(§2) Cells were cultured according to the instructions provided by the cell supplier (Nanjing Kebai Biotechnology Co., Ltd.). […] Suspension or adherent cells were collected, and cell viability was determined using the trypan blue exclusion method, ensuring that cell viability was above 90%. […]
In general terms: ATP-based viability assays read luminescence as a measure of living cells.

In the next data set the test system is NCI-H727. As to the kind of experiment: CellTiter-Glo cell proliferation inhibition, NCI-H727. It counts as cell-based. Particulars: Homo sapiens; […]; read-out: Example IC50 (µM) NCI-H727.
Description: as §1, §2

A further data set deals with NCI-1944. Kind of data set: CellTiter-Glo cell proliferation inhibition, NCI-1944. Particulars: NCI-1944 (lung cancer cell line), 72 hours; read-out: Example IC50 (µM) NCI-1944. In kind it is cell-based.
Description: as §1, §2

For the next data set, the system named is B16F10. As to the kind of experiment: CellTiter-Glo cell proliferation inhibition, B16F10. It counts as cell-based. Particulars: B16-F10; B16F10 (mouse melanoma cell line), 72 hours; read-out: Example IC50 (µM) B16F10.
Description: as §1, §2

A further data set relates to LL/2. As to the kind of experiment: CellTiter-Glo cell proliferation inhibition, LL/2. In kind it is cell-based. Particulars: LL/2 (mouse lung cancer cell line), 72 hours; read-out: Example IC50 (µM) LL/2.
Description: as §1, §2

The conditions of data set [1]: J. Med. Chem. 2014, 57, 6594-6609; cited from earlier work.

Each structure is given as a SMILES string.

On to `O=C(Nc1ccc(-c2csc(CO)c2)cc1)C(=O)Nc1ccc(-c2cc3cc(F)c(-c4nnn[nH]4)cc3n2C2CCC2)cc1` [Example 1], for which the IC50 in the data set on Jurket was found to be 0.165 µM; in the data set with NCI-H727, 0.225 µM; in the data set with NCI-1944, 0.112 µM; in the data set with B16F10 it was 0.142 µM; in the data set with LL/2, 0.207 µM.

Take `Cn1c(-c2cccc(NC(=O)C(=O)Nc3ccc(-c4ccsc4)cc3)c2)c(I)c2cc(C(=O)O)c(O)cc21` [Example 11a-1, reference compound]: in data set [1], the oral bioavailability is listed as 0.07%.
